The text below walks through data of US5582997A, “Lysine/leucine polypeptides, mixture sets and libraries thereof” (priority 1994, dated 1996).

Broadly, the Km is the concentration of substrate that gives half-maximal velocity. What is called IC50 is the concentration that gives 50% inhibition.

Where no end group is shown, it is not given here. Bounds are passed on as bounds.

Series [1] in a line: Decarboxylase-like activity: catalysed decarboxylation of oxalacetate. Type of series: biochemical. The settings on record: for kcat × 10^3 (S^-1): values are kcat × 10^3. Here is the method: Each peptide mixture was assayed at 0.2 mM in the presence of 11.4 mM of oxalacetic acid (C4 H4 O5) at pH 7.0 (dilution done in PBS--35 mM phosphate buffer--0.15M NaCl) and 22° C. The kinetics of the decarboxylation reaction were monitored by UV spectroscopy at 280 nm for 45 minutes and the initial rate "v" was calculated directly from the kinetic software included with the spectrophotometer (Hewlett Packard Diode Array Spectrophotometer 8452A).
Based upon the scanning assay studies, a series of 144 individual polypeptides was prepared and assayed as above except that the oxalacetic acid concentration was 11.5 mM. These polypeptides had the sequence of SEQ ID NO:2 with residues at positions Xaa^6 being Glu, Lys or Trp; residues at Xaa^9 being Ala, Asn or Trp; residues at Xaa^13 being Glu, Gln, Val or Trp; and residues at position Xaa^16 being Asp, Met, Gln or Arg (3×3×4×4=144).

Series [2] relates to human erythrocytes (red blood cells; RBCs). Description: Hemolytic activity. Type of series: cell-based. The settings on record: for HC50 (μg/ml) against Erythrocytes: red cells of human. Here is the method: The hemolytic activities of the polypeptide mixture sets were determined by using human erythrocytes (red blood cells; RBCs). The cells were washed three times with phosphate-buffered saline (PBS/35 mM phosphate buffer--0.15M NaCl, pH 7.0) and resuspended in PBS. The hemolytic activity of the polypeptide sets were determined as described in Blondelle et al., Biochem. Biophys. Acta, 1202:331-336 (1993) using 96 well tissue culture plates. In brief, 100 μl of 0.5 percent RBC solution were added to an equal volume of peptides in PBS. The plates were incubated for one hour at 37° C. and the optical density (OD) of the supernatant was measured at 414 nm. The concentration in peptide necessary to lyse 50 percent RBCs (HD50) was then determined for each peptide using a sigmoidal curve fitting method (Graphpad).

The test system of series [3] is Staphylococcus aureus (ATCC 29213). Format: cell-based. The settings on record: for IC50 (μg/ml) against S. aureus: individual polypeptides. Here is the method: The polypeptide libraries of Example 1 were assayed for activity against Staphylococcus aureus [(ATCC 29213); ATCC, 12301 Parklawn Drive, Rockville, Md.]
(§1) To initiate the exponential phase of bacterial growth prior to the assay, a sample of bacteria grown overnight (about 18 hours) at 37° C. in Mueller Hinton broth (MH-Becton Dickinson Microbiology Systems) was reinoculated and incubated at 37° C. A final concentration of […] was used in all assays, vortexed and diluted 10-fold in Yeast Media (YM) broth (Difco Laboratories, Detroit, Mich.), for an approximate final concentration of 10^5 to 5×10^5 CFU/ml. The assays were carried out in 96-well tissue culture plates (Costar, Pleasanton, Calif.), as described in Blondelle et al., Biochem., 31:12688-12694 (1992). In brief, a bacterial suspension in 2× broth was added to the polypeptides mixture sets at concentrations derived from serial two-fold dilutions varying from 1000 μg/ml to 4 μg/ml. The plates were then incubated 21 hours at 37° C. The relative percent growth of the bacteria was determined by the optical density at 620 nm (OD620) using a Titertek Multiskan Plus apparatus (Flow Laboratories, McLean, Va.). The concentration necessary to inhibit 50 percent bacterial growth (IC50) was then calculated using the software program Graphpad (ISI, San Diego, Calif.).

The subject of another series is E. coli ATCC 25922. Format: cell-based. To be noted: for IC50 (μg/ml) against E. coli: individual polypeptides. Here is the method:
as §1
Studies similar to those with S. aureus were carried out using E. coli ATCC 25922. Here, results were not as dramatic, but enhancements in activity of about 2-fold were observed using the set libraries of Example 1.

Turning to “YKLLKELLAKLKWLLRKL-NH2 [YKLLKELLAKLKWLLRKL-NH2]”, in series [1] (Table 4), the “Kcat /Km (S^-1 M^-1)” value came to 2.66 S^-1 M^-1, the Km worked out at 5.66 mM and the “kcat × 10^3 (S^-1)” value was found to be 15.08 S^-1.

On to “YKLLKKLLKKLKKLLKKL-NH2 [SEQ ID NO: 9, YKLLKKLLKKLKKLLKKL-NH2, reference compound]”, for which, in series [1] (Table 3), the “Kcat /Km (S^-1 M^-1)” value is on record as 0.70 S^-1 M^-1 and the “kcat × 10^3 (S^-1)” value was found to be 9.5 S^-1. The Michaelis-Menten constant (Km) in series [1] (Table 3, 0.2 mM peptide, oxalacetic acid 2.8 to 22.8 mM, pH 7.0, 22° C.) came to 13.5 mM. For the same substance, the HD50 value in series [2] was 27 µg/mL. Moreover, the IC50 value in series [3] (ATCC 29213) was determined as 16 µg/mL. Moreover, the IC50 in the series with E. coli ATCC 25922 (ATCC 25922, 18 h) worked out at 9 µg/mL. The “IC50 (μg/ml) against E. coli” value in the series on E. coli ATCC 25922 is 9 µg/mL.

As for “YKLLKLLLPKLKGLLFKL-NH2 [SEQ ID NO: 3, YKLLKLLLPKLKGLLFKL]”, in series [2], the “HC50 (μg/ml) against Erythrocytes” value is 24.41 µg/mL. Moreover, in series [3], the “IC50 (μg/ml) against S. aureus” value came to 1.71 µg/mL. Moreover, in the series with E. coli ATCC 25922, the “IC50 (μg/ml) against E. coli” value is 2.40 µg/mL.

For “YKLLKLLLPKLKGLLIKL-NH2 [SEQ ID NO: 4, YKLLKLLLPKLKGLLIKL]”, the “HC50 (μg/ml) against Erythrocytes” value in series [2] came out at 28.41 µg/mL. Also, the “IC50 (μg/ml) against S. aureus” value in series [3] stood at 2.52 µg/mL. Further, the “IC50 (μg/ml) against E. coli” value in the series with E. coli ATCC 25922 turned out to be 3.61 µg/mL.

Take “YKLLKLLLPKLKGLLPKL-NH2 [SEQ ID NO: 5, YKLLKLLLPKLKGLLPKL]”: in series [2], the “HC50 (μg/ml) against Erythrocytes” value is above 125 µg/mL. In addition, in series [3], the “IC50 (μg/ml) against S. aureus” value was 5.14 µg/mL. Besides, in the series on E. coli ATCC 25922, the “IC50 (μg/ml) against E. coli” value was 2.65 µg/mL.

Consider “YKLLKLLLPKLKPLLFKL-NH2 [SEQ ID NO: 6, YKLLKLLLPKLKPLLFKL]”, for which the “HC50 (μg/ml) against Erythrocytes” value in series [2] came to 54.74 µg/mL. In series [3], the “IC50 (μg/ml) against S. aureus” value worked out at 2.11 µg/mL. Besides, the “IC50 (μg/ml) against E. coli” value in the series with E. coli ATCC 25922 came to 1.98 µg/mL.

For “YKLLKLLLPKLKPLLIKL-NH2 [SEQ ID NO: 7, YKLLKLLLPKLKPLLIKL]”, in series [2], the “HC50 (μg/ml) against Erythrocytes” value was found to be 68.90 µg/mL. The “IC50 (μg/ml) against S. aureus” value in series [3] stood at 2.81 µg/mL. Also, the “IC50 (μg/ml) against E. coli” value in the series on E. coli ATCC 25922 was 1.87 µg/mL.

Regarding “YKLLKLLLPKLKPLLPKL-NH2 [SEQ ID NO: 8, YKLLKLLLPKLKPLLPKL]”, in series [1] (Table 4), the “Kcat /Km (S^-1 M^-1)” value is given as 0.53 S^-1 M^-1, the Km was 8 mM and the “kcat × 10^3 (S^-1)” value was 4.22 S^-1. Moreover, in series [2], the “HC50 (μg/ml) against Erythrocytes” value was above 125 µg/mL. The “IC50 (μg/ml) against S. aureus” value in series [3] is 22.82 µg/mL. Besides, the “IC50 (μg/ml) against E. coli” value in the series with E. coli ATCC 25922 was 3.14 µg/mL.
